Target: Serine/threonine-protein kinase B-raf [V600E] (Homo sapiens, UniProt P15056, V600E)
Assay: In Vitro Raf Activity
Protocol: The plate was incubated for 60 minutes at room temperature. […] The additions were carried out under dark conditions to protect the detection beads from light. A lid was placed on top of the plate and incubated for 1 hour at room temperature, then the luminescence was read on a PerkinElmer Envision instrument.

Serine/threonine-protein kinase B-raf [V600E], sequence (P15056 2-766 V600E limits assumed): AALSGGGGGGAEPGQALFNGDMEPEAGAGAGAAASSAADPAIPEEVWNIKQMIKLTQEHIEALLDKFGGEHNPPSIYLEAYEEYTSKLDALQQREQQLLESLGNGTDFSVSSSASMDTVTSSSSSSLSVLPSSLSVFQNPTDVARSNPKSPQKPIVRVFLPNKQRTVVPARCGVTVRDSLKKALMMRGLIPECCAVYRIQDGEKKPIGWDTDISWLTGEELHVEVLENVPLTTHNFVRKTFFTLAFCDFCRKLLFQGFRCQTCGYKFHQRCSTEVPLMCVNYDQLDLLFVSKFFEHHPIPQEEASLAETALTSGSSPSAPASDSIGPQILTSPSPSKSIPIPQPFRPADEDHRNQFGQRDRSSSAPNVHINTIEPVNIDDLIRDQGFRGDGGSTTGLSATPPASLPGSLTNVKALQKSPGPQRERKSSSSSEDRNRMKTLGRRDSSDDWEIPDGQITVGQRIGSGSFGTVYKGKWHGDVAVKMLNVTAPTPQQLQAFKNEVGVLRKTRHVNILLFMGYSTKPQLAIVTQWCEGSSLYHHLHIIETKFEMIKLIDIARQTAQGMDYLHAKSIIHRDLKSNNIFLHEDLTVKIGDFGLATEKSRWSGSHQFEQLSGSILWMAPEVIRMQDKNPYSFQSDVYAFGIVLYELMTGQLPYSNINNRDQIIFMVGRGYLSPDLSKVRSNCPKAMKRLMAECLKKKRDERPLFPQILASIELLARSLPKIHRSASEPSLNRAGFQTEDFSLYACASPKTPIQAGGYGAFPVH

Question: Which IC50 does the source give for `Cc1ncc(NC(=O)c2ccnc(C(C)(C)C#N)c2)cc1-c1cc(N2CCOCC2)ncn1` [US10245267, Example 2] here?
Answer: 4.8 nM

Question: `Cc1ncc(NC(=O)c2ccnc(C(F)(F)F)c2)cc1-c1cnc(OC2CNC2)c(N2CCOCC2)c1` [US10245267, Example 325] was tested. Which IC50 did it give?
Answer: 300 nM

Question: With `Cc1ncc(NC(=O)c2ccnc(C(F)(F)F)c2)cc1-c1cnc(C(C)(C)C#N)c(N2CCOCC2)c1` [US10245267, Example 326] as the compound, how does the IC50 read?
Answer: 3.7 nM

Question: How did the IC50 turn out when `Cc1ncc(NC(=O)c2ccnc(C(F)(F)F)c2)cc1-c1cnc(CS(C)(=O)=O)c(N2CCOCC2)c1` [US10245267, Example 327] was run?
Answer: 3.9 nM

Question: `CCOc1nnc(-c2cc(NC(=O)c3ccc(CN(C)CC)c(C(F)(F)F)c3)ccc2C)cc1N1CCOCC1` [US10245267, Example 576] was tested. Which IC50 did it give?
Answer: 3.5 nM

Question: Which IC50 does the source give for `Cc1ncc(NC(=O)c2ccc(C#N)c(C(F)(F)F)c2)cc1-c1cc(N2CCOCC2)c2nccn2n1` [US10245267, Example 877] here?
Answer: 6.5 nM

Question: With `Cc1ncc(NC(=O)c2cccc(C(F)F)c2)cc1-c1cc(N2CCOCC2)c2nccn2n1` [US10245267, Example 880] as the compound, how does the IC50 read?
Answer: 3.2 nM

Question: With `Cc1ncc(NC(=O)c2ccnc(C(C)(C)C#N)c2)cc1-c1cc(N2CCOCC2)c2nccn2n1` [US10245267, Example 881] as the compound, how does the IC50 read?
Answer: 32.6 nM

From BindingDB's records for patent US10245267 (Novartis, 2019)
